Values joined by “and” are separate entries in the source; they are usually repeats but may differ in a detail not shown here. Equal entries are not always repeated. Where two headings read alike, the source gives them in different places.
Columns and labels:
[1] = test system: HT-22 cell line; experiment: protection against Aβ1–42, cell membrane damage (ToxiLight); format: cell-based, mouse; settings: 10 μM pretreatment 1 h, Aβ1–42 35 μM 16 h
Experimental: Cells were cultured in Dulbecco’s modified Eagle’s Medium-high glucose (DMEM, GlutaMAX ThermoFisher) supplemented with 10% inactivated fetal bovine serum heat (Thermo Fisher), 100 IU/mL penicillin (Merck), and 100 μg/mL streptomycin (Merck). Cells were cultured in flasks (area 175 cm^2, Nunc) and incubated at 37 °C, 5% CO2. To measure the neuroprotective effect against Aβ1–42, cells were placed in a 96-well culture plate (5 × 10^3 cells per well, Falcon). To measure the toxicity of tested compounds, cells were placed in a 96-well culture plate (5 × 10^3 and 2 × 10^4 cells per well, Falcon).
Stock solutions were prepared at a concentration of 10 mM for the tested compounds. A minimum of 1 mg of each tested compound was weighed and dissolved in an appropriate volume of dimethyl sulfoxide (DMSO). Serial dilutions were prepared in DMSO, and then, the diluted compounds were transferred to phosphate-buffered saline (PBS), mixed, and put into a medium with adherent cells. Before the assays, eventual precipitation or opalescence was checked. […]
Then, 20 μL of adenylate kinase detection reagent was added. The luminescence was measured after 10 min of incubation with a plate reader, POLARstar Omega (BMG Labtech). The results are expressed as a percentage of the control (Aβ1–42), corresponding to the percentage of dead cells concerning the control sample.

[2] = tissue distribution pharmacokinetics after single i.p. administration; format: in vivo, rat; design: Cmax: unit: ng/g
Experimental: Standard laboratory food (LSM-B) and filtered water as well as environment enrichment were freely available. Animals were randomly divided into treatment groups using a computer-based random order generator. All of the experiments were performed by two observers unaware of the treatment applied between 9:00 and 14:00 on separate groups of animals. Rats were injected with the investigated compounds once (in pharmacokinetic studies) and for 21 days (in behavioral studies), and afterward, behavioral tests were conducted and tissue collection was done, as required. For pharmacokinetic studies, animals were fasted prior to dosing by withholding food but not water overnight. After dosing, the food was withheld for an additional 8 h. All animals were used only once. Animals were handled every day and weighed every other day in the chronic part of the experiment. Procedures involving animals and their care were conducted in accordance with current European Community and Polish legislations on animal experimentation. Additionally, all efforts were made to minimize animals' suffering and to use only the number of animals necessary to produce reliable scientific data. The experimental protocols and procedures described were approved by the I Local Ethics Commission in Cracow (nos 309/2019 and 765/2023) and complied with the European Communities Council Directive of 24 November 24, 1986 (86/609/EEC) and were in accordance with the 1996 NIH Guide for the Care and Use of Laboratory Animals. The research program complies with the commonly accepted '3Rs' (replacement and reduction of animals, refinement of experimental conditions, and procedures to minimize the harm to animals). […] Moreover, five tissues (i.e., brain, heart, lungs, kidneys, and liver) were harvested and rinsed with cold saline. Blood was allowed to clot at room temperature for 15-20 min and then centrifuged (3000 rpm for 10 min). The obtained serum and tissues were stored at -80 °C until analysis. […] HPLC analysis with UV detection at 221 nm was performed at a 1 mL/min flow rate, and the column temperature was 38 °C. Before analysis, tissue samples were thawed, weighed (200-250 mg), and placed in 5 mL plastic tubes with four volumes (w/v) of PBS (pH 7.4) and homogenized individually using a […]-1 homogenizer (ART Prozess & Labortechnik GmbH & Co., Germany). […] The samples were alkalized with 50 μL of 4 M sodium hydroxide solution, vortex-mixed, and extracted with 1 mL of ethyl acetate/hexane (30/70, v/v) mixture on a shaker (VXR Vibrax, IKA, Germany) for 20 min. […] Then, the samples were shaken and centrifuged again. Finally, 60-90 μL of each acidic layer was injected into the HPLC system. […] The interday and intraday precision and accuracy of quality control samples evaluated in the serum and tissue homogenates were within 15%. […] The area under the serum concentration-time curve from time zero to time t (AUC0-t), where t is the time of the last measurable sample, was calculated according to the linear trapezoidal rule. The AUC from time zero to infinity (AUC0-∞) was estimated as AUC0-t + Ct/λz, where Ct was the serum concentration of the last measurable sample. The clearance (CL/F) was calculated as D/AUC0-∞, and the volume of distribution based on the terminal phase (Vz/F) was estimated as D/(λz·AUC0-∞), where F is the bioavailability of intraperitoneal administration. The MRT is calculated to be […], where AMUC0-∞ is the area under the first moment curve from the time of dosing to infinity. The peak serum concentration (Cmax) and the time to reach Cmax (Tmax) were read directly from the observations. […] Data were presented as mean ± SD.

[3] = biological target: 5-HT7R; settings: read-out: radioligand binding assay Ki; cloned receptors; cited from earlier work

CN1CCN(c2nc(N)nc(C(C)(C)Sc3ccc4ccccc4c3)n2)CC1 [WA-22, 4-(4-methylpiperazin-1-yl)-6-(2-(naphthalen-2-ylthio)propan-2-yl)-1,3,5-triazin-2-amine]
protection of cell integrity against membrane destruction caused by Aβ1–42 [1]: neuroprotective activities
time after administration at which still detected in all analyzed rat organs ([2]; 1 mg/kg i.p.): 240 min
AUC0–t ([2]; brain, 0.3 mg/kg i.p.): 1575.82 ± 182.54 ng·min/g
t0.5λz ([2]; brain, 0.3 mg/kg i.p.): 48.35 ± 4.46 min
Tmax ([2]; brain, 0.3 mg/kg i.p., 0.3 mg/kg): 11.67 ± 5.77 min
Cmax ([2]; brain, 1.0 mg/kg i.p., 1 mg/kg): 114.79 ± 39.16 ng/g
Tmax ([2]; brain, 1.0 mg/kg i.p., 1 mg/kg): 8.33 ± 5.77 min
t0.5λz ([2]; brain, 1.0 mg/kg i.p., 1 mg/kg): 110.31 min and 110.31 ± 24.35 min
AUC0–t ([2]; heart, 0.3 mg/kg i.p.): 1670.68 ± 385.10 ng·min/g
t0.5λz ([2]; heart, 0.3 mg/kg i.p.): 84.99 ± 19.47 min
AUC0–t ([2]; heart, 1.0 mg/kg i.p.): 6013.14 ± 2336.18 ng·min/g
t0.5λz ([2]; heart, 1.0 mg/kg i.p.): 122.04 ± 18.30 min
fraction cleared in rat tissues and serum at 120 min ([2]; i.p. administration): 80–95%
AUC0–t ([2]; kidneys, 0.3 mg/kg i.p.): 3276.54 ± 1455.54 ng·min/g
t0.5λz ([2]; kidneys, 0.3 mg/kg i.p.): 67.32 ± 12.95 min
AUC0–t ([2]; kidneys, 1.0 mg/kg i.p.): 12540.07 ± 4826.76 ng·min/g
t0.5λz ([2]; kidneys, 1.0 mg/kg i.p., 1 mg/kg): 122 min and 121.93 ± 44.52 min
AUC0–t ([2]; liver, 0.3 mg/kg i.p.): 3993.81 ± 1308.63 ng·min/g
t0.5λz ([2]; liver, 0.3 mg/kg i.p.): 48.07 ± 6.68 min
AUC0–t ([2]; liver, 1.0 mg/kg i.p.): 14056.00 ± 8075.06 ng·min/g
t0.5λz ([2]; liver, 1.0 mg/kg i.p., 1 mg/kg): 109 min and 108.96 ± 17.84 min
AUC0–t ([2]; lungs, 0.3 mg/kg i.p.): 9320.95 ± 1906.43 ng·min/g
t0.5λz ([2]; lungs, 0.3 mg/kg i.p.): 105.43 ± 5.42 min
AUC0–t ([2]; lungs, 1.0 mg/kg i.p.): 33528.62 ± 5691.73 ng·min/g
t0.5λz ([2]; lungs, 1.0 mg/kg i.p.): 96.48 ± 13.43 min
Kp ([2]; male, Wistar, rat, brain (relative to serum), ip, i.p. administration, read-out: brain-to-serum AUC ratio): ~2.17
Cmax ([2]; male, Wistar, rat, brain, ip, 0.3 mg/kg, brain, 0.3 mg/kg i.p., read-out: Cmax): 30.7 ± 3.28 ng/g
Tmax ([2]; male, Wistar, rat, brain, ip, 0.3 mg/kg, brain, 0.3 mg/kg i.p., read-out: Tmax (converted)): 12 min
Cmax ([2]; male, Wistar, rat, brain, ip, 1 mg/kg, brain, 1.0 mg/kg i.p., read-out: Cmax): 115 ± 39.2 ng/g
Tmax ([2]; male, Wistar, rat, brain, ip, 1 mg/kg, brain, 1.0 mg/kg i.p., read-out: Tmax (converted)): 8 min
Kp ([2]; male, Wistar, rat, brain/serum, ip, 0.3 mg/kg, brain, 0.3 mg/kg i.p., read-out: AUC ratio (tissue-to-serum AUC0–t)): 1.89 ± 0.34
Kp ([2]; male, Wistar, rat, brain/serum, ip, 1 mg/kg, brain, 1.0 mg/kg i.p., read-out: AUC ratio (tissue-to-serum AUC0–t)): 2.46 ± 1.32
Kp ([2]; male, Wistar, rat, brain/serum, ip, 1 mg/kg, brain-to-serum, 1 mg/kg i.p., read-out: AUC0–∞ (ng·h/g)/AUC0–∞ (ng·h/mL)): 2.14 ± 1.18
Kp ([2]; male, Wistar, rat, brain/serum, ip, 1 mg/kg, brain-to-serum, 1 mg/kg i.p., read-out: Cmax (ng/g)/Cmax (ng/mL)): 1.99 ± 1.61
Cmax ([2]; male, Wistar, rat, heart, ip, 0.3 mg/kg, heart, 0.3 mg/kg i.p., read-out: Cmax): 37.5 ± 6.65 ng/g
Tmax ([2]; male, Wistar, rat, heart, ip, 0.3 mg/kg, heart, 0.3 mg/kg i.p., read-out: Tmax (converted)): 5 min
Cmax ([2]; male, Wistar, rat, heart, ip, 1 mg/kg, heart, 1.0 mg/kg i.p., read-out: Cmax): 172 ± 74.7 ng/g
Tmax ([2]; male, Wistar, rat, heart, ip, 1 mg/kg, heart, 1.0 mg/kg i.p., read-out: Tmax (converted)): 5 min
Kp ([2]; male, Wistar, rat, heart/serum, ip, 0.3 mg/kg, heart, 0.3 mg/kg i.p., read-out: AUC ratio (tissue-to-serum AUC0–t)): 2 ± 0.52
Kp ([2]; male, Wistar, rat, heart/serum, ip, 1 mg/kg, heart, 1.0 mg/kg i.p., read-out: AUC ratio (tissue-to-serum AUC0–t)): 2.63 ± 1.69
Kp ([2]; male, Wistar, rat, heart/serum, ip, 1 mg/kg, heart-to-serum, 1 mg/kg i.p., read-out: AUC0–∞ (ng·h/g)/AUC0–∞ (ng·h/mL)): 2.09 ± 2.71
Kp ([2]; male, Wistar, rat, heart/serum, ip, 1 mg/kg, heart-to-serum, 1 mg/kg i.p., read-out: Cmax (ng/g)/Cmax (ng/mL)): 2.61 ± 1.09
MRT ([2]; male, Wistar, rat, ip, brain, 0.3 mg/kg i.p.): 1.07 h
MRT ([2]; male, Wistar, rat, ip, brain, 1.0 mg/kg i.p.): 1.51 h
MRT ([2]; male, Wistar, rat, ip, heart, 0.3 mg/kg i.p.): 1.73 h
MRT ([2]; male, Wistar, rat, ip, heart, 1.0 mg/kg i.p.): 1.81 h
MRT ([2]; male, Wistar, rat, ip, kidneys, 0.3 mg/kg i.p.): 1.42 h
MRT ([2]; male, Wistar, rat, ip, kidneys, 1.0 mg/kg i.p.): 1.79 h
MRT ([2]; male, Wistar, rat, ip, liver, 0.3 mg/kg i.p.): 0.677 h
MRT ([2]; male, Wistar, rat, ip, liver, 1.0 mg/kg i.p.): 0.855 h
MRT ([2]; male, Wistar, rat, ip, lungs, 0.3 mg/kg i.p.): 2.17 h
MRT ([2]; male, Wistar, rat, ip, lungs, 1.0 mg/kg i.p.): 1.21 h
Cmax ([2]; male, Wistar, rat, kidneys, ip, 0.3 mg/kg, kidneys, 0.3 mg/kg i.p., read-out: Cmax): 72.3 ± 27.1 ng/g
Tmax ([2]; male, Wistar, rat, kidneys, ip, 0.3 mg/kg, kidneys, 0.3 mg/kg i.p., read-out: Tmax (converted)): 5 min
Cmax ([2]; male, Wistar, rat, kidneys, ip, 1 mg/kg, kidneys, 1.0 mg/kg i.p., read-out: Cmax): 247 ± 119 ng/g
Tmax ([2]; male, Wistar, rat, kidneys, ip, 1 mg/kg, kidneys, 1.0 mg/kg i.p., read-out: Tmax (converted)): 5 min
Kp ([2]; male, Wistar, rat, kidneys/serum, ip, 0.3 mg/kg, kidneys, 0.3 mg/kg i.p., read-out: AUC ratio (tissue-to-serum AUC0–t)): 3.93 ± 1.88
Kp ([2]; male, Wistar, rat, kidneys/serum, ip, 1 mg/kg, kidneys, 1.0 mg/kg i.p., read-out: AUC ratio (tissue-to-serum AUC0–t)): 5.47 ± 3.33
Kp ([2]; male, Wistar, rat, kidneys/serum, ip, 1 mg/kg, kidneys-to-serum, 1 mg/kg i.p., read-out: AUC0–∞ (ng·h/g)/AUC0–∞ (ng·h/mL)): 4.96 ± 3.2
Kp ([2]; male, Wistar, rat, kidneys/serum, ip, 1 mg/kg, kidneys-to-serum, 1 mg/kg i.p., read-out: Cmax (ng/g)/Cmax (ng/mL)): 3.41 ± 0.59
Kp ([2]; male, Wistar, rat, liver (relative to serum), ip, 1 mg/kg, liver, 1.0 mg/kg i.p., read-out: AUC ratio (tissue-to-serum AUC0–t)): 6.32 ± 4.96
Cmax ([2]; male, Wistar, rat, liver, ip, 0.3 mg/kg, liver, 0.3 mg/kg i.p., read-out: Cmax): 149 ± 34.8 ng/g
Tmax ([2]; male, Wistar, rat, liver, ip, 0.3 mg/kg, liver, 0.3 mg/kg i.p., read-out: Tmax (converted)): 5 min
Cmax ([2]; male, Wistar, rat, liver, ip, 1 mg/kg, liver, 1.0 mg/kg i.p., read-out: Cmax): 404 ± 101 ng/g
Tmax ([2]; male, Wistar, rat, liver, ip, 1 mg/kg, liver, 1.0 mg/kg i.p., read-out: Tmax (converted)): 5 min
Kp ([2]; male, Wistar, rat, liver/serum, ip, 0.3 mg/kg, liver, 0.3 mg/kg i.p., read-out: AUC ratio (tissue-to-serum AUC0–t)): 4.75 ± 1.57
Kp ([2]; male, Wistar, rat, liver/serum, ip, 1 mg/kg, liver-to-serum, 1 mg/kg i.p., read-out: AUC0–∞ (ng·h/g)/AUC0–∞ (ng·h/mL)): 5.11 ± 3.85
Kp ([2]; male, Wistar, rat, liver/serum, ip, 1 mg/kg, liver-to-serum, 1 mg/kg i.p., read-out: Cmax (ng/g)/Cmax (ng/mL)): 6.3 ± 2.69
Kp ([2]; male, Wistar, rat, lungs (relative to serum), ip, 1 mg/kg, lungs, 1.0 mg/kg i.p., read-out: AUC ratio (tissue-to-serum AUC0–t)): 14.1 ± 5.62
Cmax ([2]; male, Wistar, rat, lungs, ip, 0.3 mg/kg, lungs, 0.3 mg/kg i.p., read-out: Cmax): 214 ± 45.7 ng/g
Tmax ([2]; male, Wistar, rat, lungs, ip, 0.3 mg/kg, lungs, 0.3 mg/kg i.p., read-out: Tmax (converted)): 5 min
Cmax ([2]; male, Wistar, rat, lungs, ip, 1 mg/kg, lungs, 1.0 mg/kg i.p., read-out: Cmax): 744 ± 88.9 ng/g
Tmax ([2]; male, Wistar, rat, lungs, ip, 1 mg/kg, lungs, 1.0 mg/kg i.p., read-out: Tmax (converted)): 5 min
Kp ([2]; male, Wistar, rat, lungs/serum, ip, 0.3 mg/kg, lungs, 0.3 mg/kg i.p., read-out: AUC ratio (tissue-to-serum AUC0–t)): 11.1 ± 2.57
Kp ([2]; male, Wistar, rat, lungs/serum, ip, 1 mg/kg, lungs-to-serum, 1 mg/kg i.p., read-out: AUC0–∞ (ng·h/g)/AUC0–∞ (ng·h/mL)): 13.9 ± 7.95
Kp ([2]; male, Wistar, rat, lungs/serum, ip, 1 mg/kg, lungs-to-serum, 1 mg/kg i.p., read-out: Cmax (ng/g)/Cmax (ng/mL)): 15 ± 7.31
Ki [3]: 607 nM

Reference: PMC11926880, “Procognitive Potential of Neuroprotective Triazine 5-HT6 Receptor Antagonists Tested on Chronic Activity In Vivo in Rats: Computer-Aided Insight into the Role of Chalcogen-Differences on the Pharmacological Profile” (ACS Chemical Neuroscience, 2025)
